Where “and” joins values, the source holds several entries; their conditions need not be identical. Equal values may be shown once. Inconclusive results and toxic doses are left out.
System: L1210 leukemia ip in BDF1 mice, survival T/C
Assay: NCI In Vivo Anticancer Drug Screen. Data for tumor model L1210 Leukemia (intraperitoneal) in B6D2F1 (BDF1) mice
Details: higher = longer survival
Summary of the method: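 Transplanted-tumor mice were given test agent; controls received vehicle only. Survival readings from the two groups were divided (treated over control).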

[1] = endpoint: mean survival time, dose: 50.0 mg/kg/injection, schedule: Q01DX001 (ip), vehicle: saline
[2] = endpoint: mean survival time, dose: 50.0 mg/kg/injection, schedule: Q01DX009 (ip), vehicle: saline
[3] = endpoint: mean survival time, dose: 100.0 mg/kg/injection, schedule: Q01DX009 (ip), vehicle: saline
[4] = endpoint: mean survival time, dose: 150.0 mg/kg/injection, schedule: Q01DX001 (ip), vehicle: saline
[5] = endpoint: mean survival time, dose: 200.0 mg/kg/injection, schedule: Q01DX001 (ip), vehicle: saline
[6] = endpoint: mean survival time, dose: 200.0 mg/kg/injection, schedule: Q01DX009 (ip), vehicle: saline
[7] = endpoint: mean survival time, dose: 400.0 mg/kg/injection, schedule: Q01DX001 (ip), vehicle: saline
[8] = endpoint: mean survival time, dose: 100.0 mg/kg/injection, schedule: Q01DX001 (ip), vehicle: saline
[9] = endpoint: mean survival time, dose: 100.0 mg/kg/injection, schedule: Q04DX003 (ip), vehicle: Klucel (hydroxypropylcellulose) (HPC)
[10] = endpoint: mean survival time, dose: 200.0 mg/kg/injection, schedule: Q04DX003 (ip), vehicle: Klucel (hydroxypropylcellulose) (HPC)
[11] = endpoint: mean survival time, dose: 400.0 mg/kg/injection, schedule: Q04DX003 (ip), vehicle: Klucel (hydroxypropylcellulose) (HPC)
[12] = endpoint: mean survival time, dose: 100.0 mg/kg/injection, schedule: Q04DX003 (ip), vehicle: saline
[13] = endpoint: mean survival time, dose: 200.0 mg/kg/injection, schedule: Q04DX003 (ip), vehicle: saline
[14] = endpoint: mean survival time, dose: 100.0 mg/kg/injection, schedule: Q01DX009 (ip), vehicle: Klucel (hydroxypropylcellulose) (HPC)
[15] = endpoint: mean survival time, dose: 200.0 mg/kg/injection, schedule: Q01DX009 (ip), vehicle: Klucel (hydroxypropylcellulose) (HPC)
[16] = endpoint: mean survival time, dose: 400.0 mg/kg/injection, schedule: Q01DX009 (ip), vehicle: Klucel (hydroxypropylcellulose) (HPC)
[17] = endpoint: mean survival time, dose: 75.0 mg/kg/injection, schedule: Q01DX001 (ip), vehicle: saline

## O=P1(NCCCl)OCCCN1CCCl (stereo unspecified)
endpoint: mean survival time, dose: 12.5 mg/kg/injection, schedule: Q01DX001 (ip), vehicle: saline
  T/C: 101 % of control
endpoint: mean survival time, dose: 25.0 mg/kg/injection, schedule: Q01DX001 (ip), vehicle: saline
  T/C: 116 % of control and 117 % of control
endpoint: mean survival time, dose: 25.0 mg/kg/injection, schedule: Q01DX009 (ip), vehicle: saline
  T/C: 155 % of control
endpoint: mean survival time, dose: 25.0 mg/kg/injection, schedule: Q07DX003 (ip), vehicle: saline
  T/C: 110 % of control
[1]
  T/C: 124 % of control
[2]
  T/C: 160 % of control
endpoint: mean survival time, dose: 50.0 mg/kg/injection, schedule: Q01DX009 (ip), vehicle: water
  T/C: 173 % of control
endpoint: mean survival time, dose: 75.0 mg/kg/injection, schedule: Q07DX003 (ip), vehicle: saline
  T/C: 166 % of control
[3]
  T/C: 260 % of control
endpoint: mean survival time, dose: 100.0 mg/kg/injection, schedule: Q01DX009 (ip), vehicle: water
  T/C: 185 % of control
endpoint: mean survival time, dose: 100.0 mg/kg/injection, schedule: Q07DX003 (ip), vehicle: saline
  T/C: 216 % of control
endpoint: mean survival time, dose: 125.0 mg/kg/injection, schedule: Q07DX003 (ip), vehicle: saline
  T/C: 206 % of control
[4]
  T/C: 249 % of control
[5]
  T/C: 191 % of control and 221 % of control and 298 % of control
[6]
  T/C: 167 % of control
[7]
  T/C: 198 % of control
endpoint: mean survival time, dose: 800.0 mg/kg/injection, schedule: Q01DX001 (ip), vehicle: saline
  T/C: 206 % of control
endpoint: median survival time, dose: 65.0 mg/kg/injection, schedule: Q01DX014 (ip), vehicle: water
  T/C: 215 % of control and 216 % of control
endpoint: median survival time, dose: 108.0 mg/kg/injection, schedule: Q01DX001 (ip), vehicle: water
  T/C: 118 % of control and 121 % of control
endpoint: median survival time, dose: 180.0 mg/kg/injection, schedule: Q01DX001 (ip), vehicle: saline
  T/C: 172 % of control and 175 % of control
endpoint: median survival time, dose: 180.0 mg/kg/injection, schedule: Q01DX009 (ip), vehicle: water
  T/C: 291 % of control
endpoint: median survival time, dose: 180.0 mg/kg/injection, schedule: Q01DX014 (ip), vehicle: water
  T/C: 105 % of control
endpoint: median survival time, dose: 180.0 mg/kg/injection, schedule: Q07DX003 (ip), vehicle: water
  T/C: 289 % of control
endpoint: median survival time, dose: 300.0 mg/kg/injection, schedule: Q01DX001 (ip), vehicle: saline
  T/C: 261 % of control and 266 % of control
endpoint: median survival time, dose: 300.0 mg/kg/injection, schedule: Q01DX009 (ip), vehicle: water
  T/C: 187 % of control
endpoint: median survival time, dose: 300.0 mg/kg/injection, schedule: Q01DX014 (ip), vehicle: water
  T/C: 76 % of control
endpoint: median survival time, dose: 300.0 mg/kg/injection, schedule: Q07DX003 (ip), vehicle: water
  T/C: 168 % of control
endpoint: median survival time, dose: 400.0 mg/kg/injection, schedule: Q01DX001 (ip), vehicle: water
  T/C: 272 % of control and 297 % of control
endpoint: median survival time, dose: 500.0 mg/kg/injection, schedule: Q01DX001 (ip), vehicle: saline
  T/C: 44 % of control
endpoint: median survival time, dose: 500.0 mg/kg/injection, schedule: Q01DX009 (ip), vehicle: water
  T/C: 81 % of control
endpoint: median survival time, dose: 600.0 mg/kg/injection, schedule: Q01DX001 (ip), vehicle: water
  T/C: 227 % of control and 255 % of control
endpoint: median survival time, dose: 700.0 mg/kg/injection, schedule: Q01DX001 (ip), vehicle: water
  T/C: 46 % of control
endpoint: median survival time, dose: 800.0 mg/kg/injection, schedule: Q01DX001 (ip), vehicle: water
  T/C: 39 % of control
endpoint: median survival time, dose: 833.0 mg/kg/injection, schedule: Q01DX001 (ip), vehicle: saline
  T/C: 23 % of control
endpoint: median survival time, dose: 833.0 mg/kg/injection, schedule: Q01DX009 (ip), vehicle: water
  T/C: 24 % of control
endpoint: median survival time, dose: 900.0 mg/kg/injection, schedule: Q01DX001 (ip), vehicle: water
  T/C: 25 % of control

## CCCCCCCCCCCCCCCCC[As](=O)(O)CCCCCCCCCCCCCCCCC
[1]
  T/C: 101 % of control
[8]
  T/C: 95 % of control
[5]
  T/C: 89 % of control
[7]
  T/C: 97 % of control

## O=C(O)COc1ccccc1Cl
[9]
  T/C: 105 % of control
[10]
  T/C: 104 % of control
[11]
  T/C: 107 % of control

## O=c1c(N=Nc2ccc(Cl)cc2)c(O)n(-c2ccc(Br)cc2)c(=S)n1-c1ccccc1
endpoint: mean survival time, dose: 50.0 mg/kg/injection, schedule: Q01DX001 (ip), vehicle: Klucel (hydroxypropylcellulose) (HPC)
  T/C: 97 % of control
endpoint: mean survival time, dose: 100.0 mg/kg/injection, schedule: Q01DX001 (ip), vehicle: Klucel (hydroxypropylcellulose) (HPC)
  T/C: 101 % of control
endpoint: mean survival time, dose: 200.0 mg/kg/injection, schedule: Q01DX001 (ip), vehicle: Klucel (hydroxypropylcellulose) (HPC)
  T/C: 97 % of control

## OCCOc1ccc(Br)cc1
endpoint: mean survival time, dose: 100.0 mg/kg/injection, schedule: Q04DX002 (ip), vehicle: Klucel (hydroxypropylcellulose) (HPC)
  T/C: 92 % of control
endpoint: mean survival time, dose: 200.0 mg/kg/injection, schedule: Q04DX002 (ip), vehicle: Klucel (hydroxypropylcellulose) (HPC)
  T/C: 95 % of control
endpoint: mean survival time, dose: 400.0 mg/kg/injection, schedule: Q04DX002 (ip), vehicle: Klucel (hydroxypropylcellulose) (HPC)
  T/C: 92 % of control

## CCN1/C(=C\c2ccc3cc(OC)ccc3[n+]2CC)[Se]c2ccc(OC)cc21
endpoint: mean survival time, dose: 1.0 mg/kg/injection, schedule: Q01DX001 (ip), vehicle: other
  T/C: 98 % of control
endpoint: mean survival time, dose: 2.0 mg/kg/injection, schedule: Q01DX001 (ip), vehicle: other
  T/C: 103 % of control
endpoint: mean survival time, dose: 4.0 mg/kg/injection, schedule: Q01DX001 (ip), vehicle: other
  T/C: 103 % of control

## O=C(OC1C=CCC=C1)c1cc([N+](=O)[O-])cc([N+](=O)[O-])c1
endpoint: mean survival time, dose: 100.0 mg/kg/injection, schedule: Q04DX003 (ip), vehicle: other
  T/C: 101 % of control
endpoint: mean survival time, dose: 200.0 mg/kg/injection, schedule: Q04DX003 (ip), vehicle: other
  T/C: 101 % of control
endpoint: mean survival time, dose: 400.0 mg/kg/injection, schedule: Q04DX003 (ip), vehicle: other
  T/C: 94 % of control

## CCCCCCC1(C)NC(=O)NC1=O (stereo unspecified)
[8]
  T/C: 102 % of control
[5]
  T/C: 100 % of control
[7]
  T/C: 96 % of control

## Nc1nc2c(c(-c3ccc(Cl)cc3)n1)CN(Cc1ccccc1)C2=O
[2]
  T/C: 98 % of control
[3]
  T/C: 104 % of control
[12]
  T/C: 101 % of control
[6]
  T/C: 106 % of control
[13]
  T/C: 100 % of control
endpoint: mean survival time, dose: 400.0 mg/kg/injection, schedule: Q04DX003 (ip), vehicle: saline
  T/C: 89 % of control

## CCCCCCC(/C=N\NC(=O)c1cccc2ccccc12)=C\c1ccccc1
[5]
  T/C: 97 % of control

## CCCCC#CCl
[8]
  T/C: 101 % of control
[5]
  T/C: 94 % of control
[7]
  T/C: 94 % of control

## O=C(Nc1nccs1)Nc1cc([N+](=O)[O-])ccc1F
[9]
  T/C: 88 % of control
[10]
  T/C: 91 % of control
[11]
  T/C: 88 % of control

## OC1(C2(O)CCCC2)CCCC1
endpoint: mean survival time, dose: 100.0 mg/kg/injection, schedule: Q04DX003 (ip), vehicle: saline with Tween-80
  T/C: 98 % of control
endpoint: mean survival time, dose: 200.0 mg/kg/injection, schedule: Q04DX003 (ip), vehicle: saline with Tween-80
  T/C: 98 % of control
endpoint: mean survival time, dose: 400.0 mg/kg/injection, schedule: Q04DX003 (ip), vehicle: saline with Tween-80
  T/C: 95 % of control

## Nc1ncnc2c1ncn2CCCCl
[2]
  T/C: 100 % of control
[3]
  T/C: 100 % of control
[12]
  T/C: 90 % of control
[6]
  T/C: 92 % of control
[13]
  T/C: 106 % of control

## CCCCCCCCCCCCCCCCOc1ccc(S(=O)(=O)Nc2cc(C(=O)OC)cc(C(=O)OC)c2)cc1[N+](=O)[O-]
[14]
  T/C: 98 % of control
[9]
  T/C: 93 % of control
[15]
  T/C: 97 % of control
[10]
  T/C: 95 % of control
[16]
  T/C: 92 % of control
[11]
  T/C: 91 % of control

## CN(C)/C=C(\C#N)C=O
[17]
  T/C: 103 % of control
[4]
  T/C: 101 % of control

## Cc1ccc(-n2c(O)c(N=Nc3ccccc3C)c(=O)n(-c3ccc(I)cc3)c2=S)cc1
endpoint: mean survival time, dose: 37.5 mg/kg/injection, schedule: Q01DX001 (ip), vehicle: Klucel (hydroxypropylcellulose) (HPC)
  T/C: 101 % of control
endpoint: mean survival time, dose: 75.0 mg/kg/injection, schedule: Q01DX001 (ip), vehicle: Klucel (hydroxypropylcellulose) (HPC)
  T/C: 108 % of control
endpoint: mean survival time, dose: 150.0 mg/kg/injection, schedule: Q01DX001 (ip), vehicle: Klucel (hydroxypropylcellulose) (HPC)
  T/C: 92 % of control

## O=c1[nH][nH]c(=O)c2[nH]cnc12
[14]
  T/C: 107 % of control
[9]
  T/C: 104 % of control
[15]
  T/C: 103 % of control
[10]
  T/C: 104 % of control
[16]
  T/C: 117 % of control
[11]
  T/C: 117 % of control

## Cc1nc(N)sc1N=Nc1ccccc1Br
[17]
  T/C: 103 % of control
[4]
  T/C: 108 % of control

## CCOC(=O)c1ccc(N=Cc2cnc3nc(NC(C)=O)[nH]c(=O)c3n2)cc1
endpoint: mean survival time, dose: 100.0 mg/kg/injection, schedule: Q01DX001 (ip), vehicle: other
  T/C: 103 % of control
endpoint: mean survival time, dose: 200.0 mg/kg/injection, schedule: Q01DX001 (ip), vehicle: other
  T/C: 96 % of control
endpoint: mean survival time, dose: 400.0 mg/kg/injection, schedule: Q01DX001 (ip), vehicle: other
  T/C: 103 % of control

From PubChem BioAssay AID248 (DTP/NCI, 2004)
